# Measurements taken from US20080139664A1, “ANTI-GLYCATION AGENTS FOR PREVENTING AGE-, DIABETES-, AND SMOKING-RELATED COMPLICATIONS” (NATIONAL RESEARCH COUNCIL OF CANADA, priority 2001, published 2008).
# Where two headings read alike, the source gives them in different places.
# Assays:
# [1] = tested on: human eye; conditions: topical administration of up to 20%; cited from earlier work
# [2] = tested on: bovine serum albumin (BSA); assay: Fluorescamine assay of free primary amino groups of BSA incubated with D-ribose; type: biochemical; conditions: free primary amino group on BSA after 5 days at 37° C.; agent at 16.8 times IC50; 64% without agent
# [3] = tested on: bovine serum albumin (BSA); assay: SDS-PAGE assessment of BSA-BSA protein cross-links; type: biochemical; conditions: mixtures further incubated for 4 weeks; also: key: ++: strongly suppressed; +: suppressed; −: no suppression; *: moderate acceleration of the cross-linking
# Protocol: Additionally, protein cross-links were semi-quantitatively assessed by SDS PAGE gel chromatography.
# Protein-protein cross-links were characterized by SDS-PAGE. The incubation mixtures used for determination of the amino groups were further incubated for 4 weeks. An aliquot of the solution was applied to Pharmacia SDS FAST gel and the proteins were stained with Coomassie blue.
# [4] = tested on: lysozyme; assay: ESI-MS of lysozyme glycoforms after incubation with D-ribose; conditions: 37° C., 5 days; for Peak area as % of total area of all glycoforms, 14,569: lysozyme + 2D-ribose − 2H2O (14,569 Da); for Peak area as % of total area of all glycoforms, 14,551: lysozyme + 2D-ribose − 3H2O (14,551 Da); for Peak area as % of total area of all glycoforms, 14,533: lysozyme + 2D-ribose − 5H2O (14,533 Da); for Peak area as % of total area of all glycoforms, 14,515: lysozyme + 2D-ribose − 6H2O (14,515 Da); for Peak area as % of total area of all glycoforms, 14,419: lysozyme + D-ribose − 2H2O (14,419 Da); for Peak area as % of total area of all glycoforms, 14,401: lysozyme + D-ribose − 3H2O (14,401 Da); for Peak area as % of total area of all glycoforms, 14,437: lysozyme + D-ribose − H2O (14,437 Da); for Peak area as % of total area of all glycoforms, 14,496: lysozyme + D-ribose − H2O with one carboxymethylated Lys residue (14,496 Da); for Peak area as % of total area of all glycoforms, 14,364: lysozyme with one carboxymethylated Lys residue (14,364 Da); for Peak area as % of total area of all glycoforms, 14,305: unmodified lysozyme (14,305 Da);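 as to all read-outs here: lysozyme incubated with D-ribose, with or without anti-glycation agents, then separated by reversed-phase HPLC and analysed by electrospray mass spectrometry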
# Protocol: The effect of anti-glycation agents on the accumulation of glycated forms (glycoforms) of protein was evaluated by using electrospray mass spectrometry (ESI-MS). As the molecular mass of BSA was too large to monitor the small mass changes of its glycoforms, lysozyme was incubated with D-ribose and anti-glycants. Lysozyme and its glycoforms were isolated by RP-HPLC and analyzed by mass spectrometry.
# Samples of lysozyme (0.756 mM; 4.54 mM of Lys residues) and D-ribose (50 mM) were incubated in the presence and absence of the selected anti-glycation agents at 37° C. for 5 days and subjected to electrospray mass spectrometry (ESI-MS) in order to characterize the protein intermediates as well as carboxymethylated lysozyme. Prior to MS measurements, the proteins were isolated by reversed phase-HPLC and were semi-dried by freeze drying.
# [5] = tested on: bovine serum albumin (BSA); assay: Maillard fluorescence-based assay of AGEs formation, IC50 determination (BSA + D-ribose); conditions: inhibition of Maillard fluorescence development; 0.075 mM BSA, 50 mM D-ribose, 37° C., 5 days
# Protocol: (§1) During the glycation reaction between proteins and reducing sugars, a specific fluorescence with excitation and emission wavelength of 370 nm and 440 nm, respectively, is observed. […] The assay was based on the progressive development of the characteristic Maillard fluorescence (370 nm Ex and 440 nm Em) during the progress of the glycation reaction.
# (§2) The final assay volume was 200 μl and each assay well contained 0.075 mM BSA, and 50 mM D-ribose. Compounds were assayed at 3 different concentration levels (0.003, 0.03, and 0.3 mg/mL) to determine the effect of concentration on inhibition. Samples were incubated for 5 days.
# (§3) The Maillard fluorescence was directly measured from the reaction solution, except for the anti-glycants that quenched the Maillard fluorescence, which were analyzed by the earlier-described HPLC method.
# (§4) Solutions were incubated in microtitre plates (96 wells) at 37° C. for 5 days in a closed system.
# (§5) After one hour incubation at 37° C., fluorescence readings were taken.
# (§6) The IC50 values of the compounds that quenched the fluorescence of the glycated BSA were analyzed by on-line monitoring of the fluorescence of the glycated BSA separated from the fluorescence quenching assay compound by RP-HPLC. The elution profile was monitored by UV-diode array and by fluorescence (λex=370 nm, λem=440 nm). […] The incubation conditions were the same as above.
# [6] = tested on: dopaminergic neurons; conditions: cited from earlier work
# [7] = tested on: bovine serum albumin (BSA)
# Protocol: as §1, §2, §3, §4, §5, §6
smiles,measurement,setting,value
CC(C)NCC(O)c1ccc(O)c(O)c1.Cl [D-isoproterenol hydrochloride],effect on intra-ocular pressure,[1],did not lower intra-ocular pressure
N=C(N)NN [Aminoguanidine],Unreacted amino group,[2],68%
same,Suppression of BSA-BSA cross-links,[3],+
same,amount of (AP-H2O) glycoform of lysozyme,"[4]; FIG. 2, in words",reduced
same,"Peak area as % of total area of all glycoforms, 14,569",[4],5.7%
same,"Peak area as % of total area of all glycoforms, 14,551",[4],1.2%
same,"Peak area as % of total area of all glycoforms, 14,533",[4],1.1%
same,"Peak area as % of total area of all glycoforms, 14,515",[4],0.7%
same,"Peak area as % of total area of all glycoforms, 14,419",[4],2.6%
same,"Peak area as % of total area of all glycoforms, 14,401",[4],2.1%
same,"Peak area as % of total area of all glycoforms, 14,437",[4],26.2%
same,"Peak area as % of total area of all glycoforms, 14,496",[4],1.4%
same,"Peak area as % of total area of all glycoforms, 14,364",[4],3.2%
same,"Peak area as % of total area of all glycoforms, 14,305",[4],54.5%
same,IC50,[5],345 µM
Cc1cc(-c2ccc(/N=N/c3c(S(=O)(=O)O)cc4cc(S(=O)(=O)O)cc(N)c4c3O)c(C)c2)ccc1/N=N/c1c(S(=O)(=O)O)cc2cc(S(=O)(=O)O)cc(N)c2c1O [Trypan blue],Unreacted amino group,[2],60%
same,Suppression of BSA-BSA cross-links,[3],+
same,"Peak area as % of total area of all glycoforms, 14,569",[4],4.6%
same,"Peak area as % of total area of all glycoforms, 14,551",[4],3.4%
same,"Peak area as % of total area of all glycoforms, 14,533",[4],1.9%
same,"Peak area as % of total area of all glycoforms, 14,515",[4],1.6%
same,"Peak area as % of total area of all glycoforms, 14,419",[4],5.6%
same,"Peak area as % of total area of all glycoforms, 14,401",[4],3.0%
same,"Peak area as % of total area of all glycoforms, 14,437",[4],20.2%
same,"Peak area as % of total area of all glycoforms, 14,496",[4],2.1%
same,"Peak area as % of total area of all glycoforms, 14,364",[4],3.7%
same,"Peak area as % of total area of all glycoforms, 14,305",[4],49.8%
same,IC50,[5],240 µM
NC[C@H](O)c1ccc(O)c(O)c1 [noradrenaline],EC50,"[6]; read-out: EC50, reduction of oxidative stress related to glycation",~0.3 µM
same,concentrations of intracellular reactive oxygen species,[6]; treatment with 1 μM,drastically reduced
CCC(NC(C)C)C(O)c1ccc(O)c(O)c1 (stereo not drawn) [Isoetharine],Unreacted amino group,[2],70%
same,Suppression of BSA-BSA cross-links,[3],+
same,"Peak area as % of total area of all glycoforms, 14,569",[4],1.6%
same,"Peak area as % of total area of all glycoforms, 14,551",[4],0.7%
same,"Peak area as % of total area of all glycoforms, 14,533",[4],0.9%
same,"Peak area as % of total area of all glycoforms, 14,515",[4],0.9%
same,"Peak area as % of total area of all glycoforms, 14,419",[4],1.6%
same,"Peak area as % of total area of all glycoforms, 14,401",[4],1.3%
same,"Peak area as % of total area of all glycoforms, 14,437",[4],14.3%
same,"Peak area as % of total area of all glycoforms, 14,496",[4],1.4%
same,"Peak area as % of total area of all glycoforms, 14,364",[4],3.9%
same,"Peak area as % of total area of all glycoforms, 14,305",[4],73.4%
same,IC50,[5],25 µM
CN(C)[C@@H]1C(O)=C(C(N)=O)C(=O)[C@@]2(O)C(O)=C3C(=O)c4c(O)ccc(Cl)c4[C@@H](O)[C@H]3C[C@@H]12 [Demeclocycline],Unreacted amino group,[2],69%
same,Suppression of BSA-BSA cross-links,[3],+
same,IC50,[7],19 µM
same,"Peak area as % of total area of all glycoforms, 14,569",[4],1.4%
same,"Peak area as % of total area of all glycoforms, 14,551",[4],0.0%
same,"Peak area as % of total area of all glycoforms, 14,533",[4],0.0%
same,"Peak area as % of total area of all glycoforms, 14,515",[4],0.0%
same,"Peak area as % of total area of all glycoforms, 14,419",[4],3.0%
same,"Peak area as % of total area of all glycoforms, 14,401",[4],1.9%
same,"Peak area as % of total area of all glycoforms, 14,437",[4],13.7%
same,"Peak area as % of total area of all glycoforms, 14,496",[4],0.0%
same,"Peak area as % of total area of all glycoforms, 14,364",[4],4.2%
same,"Peak area as % of total area of all glycoforms, 14,305",[4],75.2%
NC[C@H](O)c1ccc(O)c(O)c1 [D-Norepinephrine],Unreacted amino group,[2],67%
same,Suppression of BSA-BSA cross-links,[3],+
same,IC50,[7],66 µM
same,"Peak area as % of total area of all glycoforms, 14,569",[4],1.0%
same,"Peak area as % of total area of all glycoforms, 14,551",[4],0.0%
same,"Peak area as % of total area of all glycoforms, 14,533",[4],0.0%
same,"Peak area as % of total area of all glycoforms, 14,515",[4],0.0%
same,"Peak area as % of total area of all glycoforms, 14,419",[4],1.9%
same,"Peak area as % of total area of all glycoforms, 14,401",[4],1.9%
same,"Peak area as % of total area of all glycoforms, 14,437",[4],12.1%
same,"Peak area as % of total area of all glycoforms, 14,496",[4],0.7%
same,"Peak area as % of total area of all glycoforms, 14,364",[4],5.0%
same,"Peak area as % of total area of all glycoforms, 14,305",[4],77.3%
